Tests used:
Type in all cases: cell-based
[1] = tested on: E. coli BL21; assay: MIC against Gram-negative bacteria: E. coli BL21; conditions: 5×10^5 CFU/mL
How it was run: (§1)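 LB broth cultures at McFarland 0.5, spun down, resuspended, diluted to 5×10^5 CFU/mL final. Two-fold serial dilutions of purified human EGF domain proteins, triplicate. 37° C, 175 rpm shaking. Endpoint: no visible growth.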

[2] = tested on: Proteus vulgaris; assay: MIC against Gram-negative bacteria: Proteus vulgaris; conditions: 5×10^5 CFU/mL
How it was run: as §1

[3] = tested on: Serratia marcescens; assay: MIC against Gram-negative bacteria: Serratia marcescens; conditions: 5×10^5 CFU/mL
How it was run: as §1

[4] = tested on: Moraxella catarrhalis; assay: MIC against Gram-negative bacteria: Moraxella catarrhalis; conditions: 5×10^5 CFU/mL
How it was run: as §1

[5] = tested on: Klebsiella pneumonia; assay: MIC against Gram-negative bacteria: Klebsiella pneumonia; conditions: 5×10^5 CFU/mL
How it was run: as §1

[6] = tested on: Aeromonas hydrophila; assay: MIC against Gram-negative bacteria: Aeromonas hydrophila; conditions: 5×10^5 CFU/mL
How it was run: as §1

[7] = tested on: Enterobacter cloacae; assay: MIC against Gram-negative bacteria: Enterobacter cloacae; conditions: 5×10^5 CFU/mL
How it was run: as §1

[8] = tested on: Citrobacter diversus; assay: MIC against Gram-negative bacteria: Citrobacter diversus; conditions: 5×10^5 CFU/mL
How it was run: as §1

[9] = tested on: E. coli DH5α; assay: Antibacterial activity: MIC and growth curve against E. coli DH5α in 96-well plate; conditions: minimal inhibitory concentration against E. coli DH5α; 96-well plate, 5×10^5 CFU/mL, 37° C., judged after 8 h
How it was run: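 Log-phase bacteria (OD600 ~0.5) resuspended in LB at 5×10^5 CFU/mL, exposed to recombinant protein at 50, 25, 12.5 μg/mL final in triplicate, 37 °C shaking at 175 rpm. OD600 read every 30 min; MIC is lowest concentration showing no growth.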

[10] = tested on: Proteus mirabilis; assay: MIC against Gram-negative bacteria: Proteus mirabilis; conditions: 5×10^5 CFU/mL
How it was run: as §1

[11] = tested on: Pseudomonas aeruginosa; assay: MIC against Gram-negative bacteria: Pseudomonas aeruginosa; conditions: 5×10^5 CFU/mL
How it was run: as §1

[12] = E. coli BL21, 96-well plate, 37° C., 10 h
[13] = Proteus vulgaris, 96-well plate, 37° C., 10 h
[14] = Serratia marcescens, 96-well plate, 37° C., 10 h
[15] = Moraxella catarrhalis, 96-well plate, 37° C., 10 h
[16] = Klebsiella pneumonia, 96-well plate, 37° C., 10 h
[17] = Aeromonas hydrophila, 96-well plate, 37° C., 10 h
[18] = Enterobacter cloacae, 96-well plate, 37° C., 10 h
[19] = Citrobacter diversus, 96-well plate, 37° C., 10 h
[20] = Proteus mirabilis, 96-well plate, 37° C., 10 h
[21] = Pseudomonas aeruginosa, 96-well plate, 37° C., 10 h
[22] = E. coli BL21, 10 h cultivation at 37° C.
[23] = P. vulgaris, 10 h cultivation at 37° C.
[24] = S. marcescens, 10 h cultivation at 37° C.
[25] = M. catarrhalis, 10 h cultivation at 37° C.
[26] = K. pneumonia, 10 h cultivation at 37° C.
[27] = A. hydrophila, 10 h cultivation at 37° C.
[28] = E. cloacae, 10 h cultivation at 37° C.
[29] = C. diversus, 10 h cultivation at 37° C.
[30] = P. mirabilis, 10 h cultivation at 37° C.
[31] = P. aeruginosa, 10 h cultivation at 37° C.

Substance: PRT740 (GLNDCMHNNGQCGQLCLAIPGGHRCGCASHYTLDPSSRNCS; listed as Homo sapiens)
- MIC E. coli BL21 ([1]; 96-well plate, 37° C., 10 h): 12.5 µg/mL
- MIC P. vulgaris ([2]; 96-well plate, 37° C., 10 h): 12.5 µg/mL
- MIC S. marcescens ([3]; 96-well plate, 37° C., 10 h): 25 µg/mL
- MIC M. catarrhalis ([4]; 96-well plate, 37° C., 10 h): 50 µg/mL
- MIC K. pneumonia ([5]; 96-well plate, 37° C., 10 h): 12.5 µg/mL
- MIC A. hydrophila ([6]; 96-well plate, 37° C., 10 h): 12.5 µg/mL
- MIC E. cloacae ([7]; 96-well plate, 37° C., 10 h): 50 µg/mL
- MIC C. diversus ([8]; 96-well plate, 37° C., 10 h): 12.5 µg/mL
- MIC [9]: 12.5 µg/mL
- MIC P. mirabilis ([10]; 96-well plate, 37° C., 10 h): 25 µg/mL
- MIC P. aeruginosa ([11]; 96-well plate, 37° C., 10 h): 50 µg/mL

Substance: PRT117 (DVDECALGRSPCAQGCTNTDGSFHCSCEEGYVLAGEDGTQCQ; listed as Homo sapiens)
- MIC (μg/mL) E. coli BL21 [1, 12]: 12.5 µg/mL
- MIC (μg/mL) P. vulgaris [2, 13]: 12.5 µg/mL
- MIC (μg/mL) S. marcescens [3, 14]: 12.5 µg/mL
- MIC (μg/mL) M. catarrhalis [4, 15]: 12.5 µg/mL
- MIC (μg/mL) K. pneumonia [5, 16]: 12.5 µg/mL
- MIC (μg/mL) A. hydrophila [6, 17]: 12.5 µg/mL
- MIC (μg/mL) E. cloacae [7, 18]: 25 µg/mL
- MIC (μg/mL) C. diversus [8, 19]: 25 µg/mL
- MIC [9]: 12.5 µg/mL
- MIC (μg/mL) P. mirabilis [10, 20]: 25 µg/mL
- MIC (μg/mL) P. aeruginosa [11, 21]: 25 µg/mL

Substance: PRT777 (SGDRCQLQTRCQNGGQWDGLKCQCPSTFYGSSCE; listed as Homo sapiens)
- MIC (μg/mL) E. coli BL21 [1, 22]: 12.5 µg/mL
- MIC (μg/mL) P. vulgaris [2, 23]: 25 µg/mL
- MIC (μg/mL) S. marcescens [3, 24]: 12.5 µg/mL
- MIC (μg/mL) M. catarrhalis [4, 25]: 12.5 µg/mL
- MIC (μg/mL) K. pneumonia [5, 26]: 12.5 µg/mL
- MIC (μg/mL) A. hydrophila [6, 27]: 50 µg/mL
- MIC (μg/mL) E. cloacae [7, 28]: 12.5 µg/mL
- MIC (μg/mL) C. diversus [8, 29]: 50 µg/mL
- MIC [9]: 50 µg/mL
- MIC (μg/mL) P. mirabilis [10, 30]: 50 µg/mL
- MIC (μg/mL) P. aeruginosa [11, 31]: 50 µg/mL

Substance: PRT522 (CVCNGHAEVCNINNPEKLFRCECQHHTCGETCDRCCTGYNQRRWRPAAWEQSHECEA; listed as Homo sapiens)
- MIC against E. coli BL21 ([1]; 96-well plate, 37° C., 10 h): 50 µg/mL
- MIC against P. vulgaris ([2]; 96-well plate, 37° C., 10 h): 50 µg/mL
- MIC against S. marcescens ([3]; 96-well plate, 37° C., 10 h): 25 µg/mL
- MIC against M. catarrhalis ([4]; 96-well plate, 37° C., 10 h): 12.5 µg/mL
- MIC against K. pneumonia ([5]; 96-well plate, 37° C., 10 h): 12.5 µg/mL
- MIC against A. hydrophila ([6]; 96-well plate, 37° C., 10 h): 50 µg/mL
- MIC against E. cloacae ([7]; 96-well plate, 37° C., 10 h): 25 µg/mL
- MIC against C. diversus ([8]; 96-well plate, 37° C., 10 h): 25 µg/mL
- MIC [9]: 25 µg/mL
- MIC against P. mirabilis ([10]; 96-well plate, 37° C., 10 h): 25 µg/mL
- MIC against P. aeruginosa ([11]; 96-well plate, 37° C., 10 h): 25 µg/mL

Substance: PRT1300 (VIDHCVPELNLCQHEAKCIPLDKGFSCECVPGYSGKLCE; listed as Homo sapiens)
- MIC against E. coli BL21 [1, 12]: 50 µg/mL
- MIC against P. vulgaris [2, 13]: 12.5 µg/mL
- MIC against S. marcescens [3, 14]: 12.5 µg/mL
- MIC against M. catarrhalis [4, 15]: 12.5 µg/mL
- MIC against K. pneumonia [5, 16]: 12.5 µg/mL
- MIC against A. hydrophila [6, 17]: 50 µg/mL
- MIC against E. cloacae [7, 18]: 25 µg/mL
- MIC against C. diversus [8, 19]: 12.5 µg/mL
- MIC [9]: 12.5 µg/mL
- MIC against P. mirabilis [10, 20]: 12.5 µg/mL
- MIC against P. aeruginosa [11, 21]: 25 µg/mL

Substance: PRT229 (DINECLTSSVCPEHSDCVNSMGSYSCSCQVGFISRNSTCE; listed as Homo sapiens)
- MIC (μg/mL) E. coli BL21 [1, 22]: 25 µg/mL
- MIC (μg/mL) P. vulgaris [2, 23]: 25 µg/mL
- MIC (μg/mL) S. marcescens [3, 24]: 12.5 µg/mL
- MIC (μg/mL) M. catarrhalis [4, 25]: 12.5 µg/mL
- MIC (μg/mL) K. pneumonia [5, 26]: 12.5 µg/mL
- MIC (μg/mL) A. hydrophila [6, 27]: 12.5 µg/mL
- MIC (μg/mL) E. cloacae [7, 28]: 12.5 µg/mL
- MIC (μg/mL) C. diversus [8, 29]: 12.5 µg/mL
- MIC [9]: 50 µg/mL
- MIC (μg/mL) P. mirabilis [10, 30]: 12.5 µg/mL
- MIC (μg/mL) P. aeruginosa [11, 31]: 12.5 µg/mL

Substance: PRT1295 (RTSPCDNFDCQNGAQCIVRINEPICQCLPGYQGEKCE; listed as Homo sapiens)
- MIC against E. coli BL21 [1, 12]: 50 µg/mL
- MIC against P. vulgaris [2, 13]: 50 µg/mL
- MIC against S. marcescens [3, 14]: 12.5 µg/mL
- MIC against M. catarrhalis [4, 15]: 50 µg/mL
- MIC against K. pneumonia [5, 16]: 50 µg/mL
- MIC against A. hydrophila [6, 17]: 50 µg/mL
- MIC against E. cloacae [7, 18]: 12.5 µg/mL
- MIC against C. diversus [8, 19]: 12.5 µg/mL
- MIC [9]: 12.5 µg/mL
- MIC against P. mirabilis [10, 20]: 12.5 µg/mL
- MIC against P. aeruginosa [11, 21]: 12.5 µg/mL

Source: patent US9833497B2, “Human originated EGF domain proteins and use of the same” (CHENGDU SOURCEBIO LIMITED-LIABILITY COMPANY, priority 2013, dated 2017)
